According to patent US4281121A, “1,3,4-Thiadiazole-2-carboxylic acid derivatives, process for making the same and fungicidal and nematocidal compositions containing same” (Schering Aktiengesellschaft, priority 1978, dated 1981):

tested on: Tilletia caries; experiment: Seed treatment in open field tests regarding infestation by Tilletia caries (oats); assay type: in vivo; settings: summer oats; 25 g active agent/100 kg; about 4 months

Row | Compound | % activity [%]
1 | CC[S+]([O-])c1nnc(C(N)=O)s1 (centres unmarked) [5-ethylsulfinyl-1,3,4-thiadiazole-2-carboxamide] | 100

same assay, conditions: summer oats; 50 g active agent/100 kg; about 4 months

Row | Compound | % activity [%]
2 | CC[S+]([O-])c1nnc(C(N)=O)s1 (centres unmarked) [5-ethylsulfinyl-1,3,4-thiadiazole-2-carboxamide] | 100

tested on: Helminthosporium gramineum; experiment: Seed treatment in open field tests for infestation by Helminthosporium gramineum (barley); assay type: in vivo; settings: summer barley; 25 g active agent/100 kg barley; about 3 months
Method: Seed treatment in open field tests for infestation by Helminthosporium gramineum
The active agents were used in the form of pulverulent compositions. After about 8 months in case of winter barley and after about 3 months in case of summer barley the infested plants were counted and the activity was calculated by the formula [formula]

Row | Compound | % activity [%]
3 | CCS(=O)(=O)c1nnc(C(=O)NCCCOC)s1 [5-ethylsulfonyl-1,3,4-thiadiazole-2-carboxylic acid-(3-methoxypropyl)-amide] | 94
4 | C=CCNC(=O)c1nnc(S(=O)(=O)CC)s1 [5-ethylsulfonyl-1,3,4-thiadiazole-2-carboxylic acid-allylamide] | 97
5 | CCS(=O)(=O)c1nnc(C(=O)NC(C)C)s1 [5-ethylsulfonyl-1,3,4-thiadiazole-2-carboxylic acid-isopropylamide] | 96

same assay, conditions: summer barley; 50 g active agent/100 kg barley; about 3 months

Row | Compound | % activity [%]
6 | CCS(=O)(=O)c1nnc(C(=O)NCCCOC)s1 [5-ethylsulfonyl-1,3,4-thiadiazole-2-carboxylic acid-(3-methoxypropyl)-amide] | 96
7 | C=CCNC(=O)c1nnc(S(=O)(=O)CC)s1 [5-ethylsulfonyl-1,3,4-thiadiazole-2-carboxylic acid-allylamide] | 100
8 | CCS(=O)(=O)c1nnc(C(=O)NC(C)C)s1 [5-ethylsulfonyl-1,3,4-thiadiazole-2-carboxylic acid-isopropylamide] | 100

same assay, conditions: summer barley; 100 g active agent/100 kg barley; about 3 months

Row | Compound | % activity [%]
9 | CCS(=O)(=O)c1nnc(C(=O)NCCCOC)s1 [5-ethylsulfonyl-1,3,4-thiadiazole-2-carboxylic acid-(3-methoxypropyl)-amide] | 100
10 | C=CCNC(=O)c1nnc(S(=O)(=O)CC)s1 [5-ethylsulfonyl-1,3,4-thiadiazole-2-carboxylic acid-allylamide] | 100
11 | CCS(=O)(=O)c1nnc(C(=O)NC(C)C)s1 [5-ethylsulfonyl-1,3,4-thiadiazole-2-carboxylic acid-isopropylamide] | 99.8

tested on: Piricularia oryzae; experiment: not given; assay type: in vivo; settings: concentration of active agent 0.1 (percentages); 5 days

Row | Compound | % activity [%]
12 | CCS(=O)(=O)c1nnc(C(=O)NCCCOC)s1 [5-ethylsulfonyl-1,3,4-thiadiazole-2-carboxylic acid-(3-methoxypropyl)-amide] | 97
13 | CCS(=O)(=O)c1nnc(C(=O)NC(C)C)s1 [5-ethylsulfonyl-1,3,4-thiadiazole-2-carboxylic acid-isopropylamide] | 99

tested on: Tilletia caries; experiment: Treatment of oat seeds infested with Tilletia caries (spore germination); assay type: in vivo; settings: 5 g active agent per 100 kg

Row | Compound | % activity [%]
14 | CC[S+]([O-])c1nnc(C(N)=O)s1 (centres unmarked) [5-ethylsulfinyl-1,3,4-thiadiazole-2-carboxamide] | 78

same assay, conditions: 10 g active agent per 100 kg

Row | Compound | % activity [%]
15 | CC[S+]([O-])c1nnc(C(N)=O)s1 (centres unmarked) [5-ethylsulfinyl-1,3,4-thiadiazole-2-carboxamide] | 96
16 | CCS(=O)(=O)c1nnc(C(=O)NCCCOC)s1 [5-ethylsulfonyl-1,3,4-thiadiazole-2-carboxylic acid-(3-methoxypropyl)-amide] | 100
17 | C=CCNC(=O)c1nnc(S(=O)(=O)CC)s1 [5-ethylsulfonyl-1,3,4-thiadiazole-2-carboxylic acid-allylamide] | 100
18 | CCS(=O)(=O)c1nnc(C(=O)NC(C)C)s1 [5-ethylsulfonyl-1,3,4-thiadiazole-2-carboxylic acid-isopropylamide] | 100

same assay, conditions: 20 g active agent per 100 kg

Row | Compound | % activity [%]
19 | CC[S+]([O-])c1nnc(C(N)=O)s1 (centres unmarked) [5-ethylsulfinyl-1,3,4-thiadiazole-2-carboxamide] | 100
20 | CCS(=O)(=O)c1nnc(C(=O)NCCCOC)s1 [5-ethylsulfonyl-1,3,4-thiadiazole-2-carboxylic acid-(3-methoxypropyl)-amide] | 100
21 | C=CCNC(=O)c1nnc(S(=O)(=O)CC)s1 [5-ethylsulfonyl-1,3,4-thiadiazole-2-carboxylic acid-allylamide] | 100
22 | CCS(=O)(=O)c1nnc(C(=O)NC(C)C)s1 [5-ethylsulfonyl-1,3,4-thiadiazole-2-carboxylic acid-isopropylamide] | 100

same assay, conditions: 50 g active agent per 100 kg

Row | Compound | % activity [%]
23 | CCS(=O)(=O)c1nnc(C(=O)NCCCOC)s1 [5-ethylsulfonyl-1,3,4-thiadiazole-2-carboxylic acid-(3-methoxypropyl)-amide] | 100
24 | C=CCNC(=O)c1nnc(S(=O)(=O)CC)s1 [5-ethylsulfonyl-1,3,4-thiadiazole-2-carboxylic acid-allylamide] | 100
25 | CCS(=O)(=O)c1nnc(C(=O)NC(C)C)s1 [5-ethylsulfonyl-1,3,4-thiadiazole-2-carboxylic acid-isopropylamide] | 100

tested on: Plasmopara viticola; experiment: Prophylactic leaf treatment of grapevines in the hothouse against Plasmopara viticola; assay type: in vivo; settings: concentration of active agent 0.001 (unit not given)
In short: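 Activity derived from average percentage of leaf surface infested per treatment. Plants with 5–8 leaves received preventive spray (20% spray powder formulation), then undersides inoculated with ~20,000 sporangia/ml; held at 22–24 °C with full humidity, reduced to 30–70% for 3–4 days, then saturated one day.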

Row | Compound | % activity [%]
26 | C=CCNC(=O)c1nnc(S(=O)(=O)CC)s1 [5-ethylsulfonyl-1,3,4-thiadiazole-2-carboxylic acid-allylamide] | 98

same assay, conditions: concentration of active agent 0.005 (unit not given)

Row | Compound | % activity [%]
27 | C=CCNC(=O)c1nnc(S(=O)(=O)CC)s1 [5-ethylsulfonyl-1,3,4-thiadiazole-2-carboxylic acid-allylamide] | 96

same assay, conditions: concentration of active agent 0.025 (unit not given)

Row | Compound | % activity [%]
28 | CCS(=O)(=O)c1nnc(C(=O)NCCCOC)s1 [5-ethylsulfonyl-1,3,4-thiadiazole-2-carboxylic acid-(3-methoxypropyl)-amide] | 90
29 | C=CCNC(=O)c1nnc(S(=O)(=O)CC)s1 [5-ethylsulfonyl-1,3,4-thiadiazole-2-carboxylic acid-allylamide] | 99.4
30 | CCS(=O)(=O)c1nnc(C(=O)NC(C)C)s1 [5-ethylsulfonyl-1,3,4-thiadiazole-2-carboxylic acid-isopropylamide] | 92

tested on: Pythium ultimum; experiment: Threshold concentration test for use of the compounds against Pythium ultimum (infested soil, garden peas); assay type: in vivo; set-up: key to root evaluation (1-4): 4: white roots without fungous necrosis; 3: white roots, minor fungous necrosis; 2: brown roots, already more pronounced fungous necrosis; 1: heavy fungous necrosis, roots rotted; settings: 20 mg/l soil; 3 weeks
In short: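 Garden pea seeds, 20 per dish, went straight into Pythium ultimum-infested soil into which 20% pulverulent formulations had been uniformly blended. Sound plants counted and roots rated 1–4 after three weeks of hothouse growth at 20–24 °C.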

Row | Compound | root evaluation (1-4)
31 | CC[S+]([O-])c1nnc(C(N)=O)s1 (centres unmarked) [5-ethylsulfinyl-1,3,4-thiadiazole-2-carboxamide] | 2
32 | CCS(=O)(=O)c1nnc(C(=O)NCCCOC)s1 [5-ethylsulfonyl-1,3,4-thiadiazole-2-carboxylic acid-(3-methoxypropyl)-amide] | 1
33 | C=CCNC(=O)c1nnc(S(=O)(=O)CC)s1 [5-ethylsulfonyl-1,3,4-thiadiazole-2-carboxylic acid-allylamide] | 1
34 | CCS(=O)(=O)c1nnc(C(=O)NC(C)C)s1 [5-ethylsulfonyl-1,3,4-thiadiazole-2-carboxylic acid-isopropylamide] | 3

same assay, conditions: 20 mg/l soil; 20 grains per dish; 3 weeks at 20-24° C.

Row | Compound | number of sound peas
35 | CC[S+]([O-])c1nnc(C(N)=O)s1 (centres unmarked) [5-ethylsulfinyl-1,3,4-thiadiazole-2-carboxamide] | 15
36 | CCS(=O)(=O)c1nnc(C(=O)NCCCOC)s1 [5-ethylsulfonyl-1,3,4-thiadiazole-2-carboxylic acid-(3-methoxypropyl)-amide] | 11
37 | C=CCNC(=O)c1nnc(S(=O)(=O)CC)s1 [5-ethylsulfonyl-1,3,4-thiadiazole-2-carboxylic acid-allylamide] | 11
38 | CCS(=O)(=O)c1nnc(C(=O)NC(C)C)s1 [5-ethylsulfonyl-1,3,4-thiadiazole-2-carboxylic acid-isopropylamide] | 16

same assay, conditions: 40 mg/l soil; 3 weeks

Row | Compound | root evaluation (1-4)
39 | CC[S+]([O-])c1nnc(C(N)=O)s1 (centres unmarked) [5-ethylsulfinyl-1,3,4-thiadiazole-2-carboxamide] | 4
40 | CCS(=O)(=O)c1nnc(C(=O)NCCCOC)s1 [5-ethylsulfonyl-1,3,4-thiadiazole-2-carboxylic acid-(3-methoxypropyl)-amide] | 4
41 | C=CCNC(=O)c1nnc(S(=O)(=O)CC)s1 [5-ethylsulfonyl-1,3,4-thiadiazole-2-carboxylic acid-allylamide] | 4
42 | CCS(=O)(=O)c1nnc(C(=O)NC(C)C)s1 [5-ethylsulfonyl-1,3,4-thiadiazole-2-carboxylic acid-isopropylamide] | 3

same assay, conditions: 40 mg/l soil; 20 grains per dish; 3 weeks at 20-24° C.

Row | Compound | number of sound peas
43 | CC[S+]([O-])c1nnc(C(N)=O)s1 (centres unmarked) [5-ethylsulfinyl-1,3,4-thiadiazole-2-carboxamide] | 20
44 | CCS(=O)(=O)c1nnc(C(=O)NCCCOC)s1 [5-ethylsulfonyl-1,3,4-thiadiazole-2-carboxylic acid-(3-methoxypropyl)-amide] | 18
45 | C=CCNC(=O)c1nnc(S(=O)(=O)CC)s1 [5-ethylsulfonyl-1,3,4-thiadiazole-2-carboxylic acid-allylamide] | 17
46 | CCS(=O)(=O)c1nnc(C(=O)NC(C)C)s1 [5-ethylsulfonyl-1,3,4-thiadiazole-2-carboxylic acid-isopropylamide] | 15

same assay, conditions: 80 mg/l soil; 3 weeks

Row | Compound | root evaluation (1-4)
47 | CC[S+]([O-])c1nnc(C(N)=O)s1 (centres unmarked) [5-ethylsulfinyl-1,3,4-thiadiazole-2-carboxamide] | 4
48 | CCS(=O)(=O)c1nnc(C(=O)NCCCOC)s1 [5-ethylsulfonyl-1,3,4-thiadiazole-2-carboxylic acid-(3-methoxypropyl)-amide] | 4
49 | C=CCNC(=O)c1nnc(S(=O)(=O)CC)s1 [5-ethylsulfonyl-1,3,4-thiadiazole-2-carboxylic acid-allylamide] | 4
50 | CCS(=O)(=O)c1nnc(C(=O)NC(C)C)s1 [5-ethylsulfonyl-1,3,4-thiadiazole-2-carboxylic acid-isopropylamide] | 4

same assay, conditions: 80 mg/l soil; 20 grains per dish; 3 weeks at 20-24° C.

Row | Compound | number of sound peas
51 | CC[S+]([O-])c1nnc(C(N)=O)s1 (centres unmarked) [5-ethylsulfinyl-1,3,4-thiadiazole-2-carboxamide] | 20
52 | CCS(=O)(=O)c1nnc(C(=O)NCCCOC)s1 [5-ethylsulfonyl-1,3,4-thiadiazole-2-carboxylic acid-(3-methoxypropyl)-amide] | 17
53 | C=CCNC(=O)c1nnc(S(=O)(=O)CC)s1 [5-ethylsulfonyl-1,3,4-thiadiazole-2-carboxylic acid-allylamide] | 16
54 | CCS(=O)(=O)c1nnc(C(=O)NC(C)C)s1 [5-ethylsulfonyl-1,3,4-thiadiazole-2-carboxylic acid-isopropylamide] | 16

tested on: Helminthosporium gram; experiment: not given; settings: 10 g active agent per 100 kg; about 5 weeks

Row | Compound | % activity [%]
55 | CC[S+]([O-])c1nnc(C(N)=O)s1 (centres unmarked) [5-ethylsulfinyl-1,3,4-thiadiazole-2-carboxamide] | 99
56 | CCS(=O)(=O)c1nnc(C(=O)NCCCOC)s1 [5-ethylsulfonyl-1,3,4-thiadiazole-2-carboxylic acid-(3-methoxypropyl)-amide] | 99
57 | C=CCNC(=O)c1nnc(S(=O)(=O)CC)s1 [5-ethylsulfonyl-1,3,4-thiadiazole-2-carboxylic acid-allylamide] | 100
58 | CCS(=O)(=O)c1nnc(C(=O)NC(C)C)s1 [5-ethylsulfonyl-1,3,4-thiadiazole-2-carboxylic acid-isopropylamide] | 95

same assay, conditions: 20 g active agent per 100 kg; about 5 weeks

Row | Compound | % activity [%]
59 | CC[S+]([O-])c1nnc(C(N)=O)s1 (centres unmarked) [5-ethylsulfinyl-1,3,4-thiadiazole-2-carboxamide] | 100
60 | CCS(=O)(=O)c1nnc(C(=O)NCCCOC)s1 [5-ethylsulfonyl-1,3,4-thiadiazole-2-carboxylic acid-(3-methoxypropyl)-amide] | 99
61 | C=CCNC(=O)c1nnc(S(=O)(=O)CC)s1 [5-ethylsulfonyl-1,3,4-thiadiazole-2-carboxylic acid-allylamide] | 100
62 | CCS(=O)(=O)c1nnc(C(=O)NC(C)C)s1 [5-ethylsulfonyl-1,3,4-thiadiazole-2-carboxylic acid-isopropylamide] | 98

same assay, conditions: 50 g active agent per 100 kg; about 5 weeks

Row | Compound | % activity [%]
63 | CC[S+]([O-])c1nnc(C(N)=O)s1 (centres unmarked) [5-ethylsulfinyl-1,3,4-thiadiazole-2-carboxamide] | 100
64 | CCS(=O)(=O)c1nnc(C(=O)NCCCOC)s1 [5-ethylsulfonyl-1,3,4-thiadiazole-2-carboxylic acid-(3-methoxypropyl)-amide] | 100
65 | C=CCNC(=O)c1nnc(S(=O)(=O)CC)s1 [5-ethylsulfonyl-1,3,4-thiadiazole-2-carboxylic acid-allylamide] | 100
66 | CCS(=O)(=O)c1nnc(C(=O)NC(C)C)s1 [5-ethylsulfonyl-1,3,4-thiadiazole-2-carboxylic acid-isopropylamide] | 100

tested on: Septoria nodorum; experiment: Treatment of oat seeds against Septoria nodorum; assay type: in vivo; settings: 50 g active agent/100 kg seeds; 4 weeks
Method: Effects of the treatment of oat seeds against Septoria nodorum
They were then seeded on a moist substrate for germination. As a control untreated seeds were likewise seeded. At about 6° C. the seed was incubated in an air-conditioned chamber until after 4 weeks the proportion of diseased seeds could be determined and the activity of the fungicidal compounds was calculated on the basis of the following formula: [formula]
The active agents were applied in the form of 20% concentration pulverulent compositions.

Row | Compound | % activity [%]
67 | CCS(=O)(=O)c1nnc(C(=O)NCCCOC)s1 [5-ethylsulfonyl-1,3,4-thiadiazole-2-carboxylic acid-(3-methoxypropyl)-amide] | 86
68 | C=CCNC(=O)c1nnc(S(=O)(=O)CC)s1 [5-ethylsulfonyl-1,3,4-thiadiazole-2-carboxylic acid-allylamide] | 72
69 | CCS(=O)(=O)c1nnc(C(=O)NC(C)C)s1 [5-ethylsulfonyl-1,3,4-thiadiazole-2-carboxylic acid-isopropylamide] | 86

tested on: Fusarium nivale; experiment: Treatment of rye seeds against Fusarium nivale; assay type: in vivo; settings: 100 g/100 kg; about 4 weeks
Method: Treatment of rye seeds against Fusarium nivale
Rye seeds with a natural infestation by Fusarium nivale were seeded in earth filled pots and left for germination at about 6° C. Part of the seeds was treated before seeding with the active agents as appears from the subsequent table and part was untreated. After emergence of the seedlings the plants were illuminated with artificial light for 12 hours each day. After about 4 weeks the degree of infestation was determined in percentages. The fungicidal activity was calculated on the basis of the following formula: [formula]
The active agents were used in the form of 20% concentration compositions.

Row | Compound | % activity [%]
70 | CC[S+]([O-])c1nnc(C(N)=O)s1 (centres unmarked) [5-ethylsulfinyl-1,3,4-thiadiazole-2-carboxamide] | 93
71 | C=CCNC(=O)c1nnc(S(=O)(=O)CC)s1 [5-ethylsulfonyl-1,3,4-thiadiazole-2-carboxylic acid-allylamide] | 94
